From ChEMBL document CHEMBL1145498, “A systematic interaction map of validated kinase inhibitors with Ser/Thr kinases” (Proc Natl Acad Sci U S A, 2007) come the findings set out here.

The target of assay [1] is T1, Serine/threonine-protein kinase VRK3 (Homo sapiens) (UniProt Q8IV63).
T1 sequence (whole entry): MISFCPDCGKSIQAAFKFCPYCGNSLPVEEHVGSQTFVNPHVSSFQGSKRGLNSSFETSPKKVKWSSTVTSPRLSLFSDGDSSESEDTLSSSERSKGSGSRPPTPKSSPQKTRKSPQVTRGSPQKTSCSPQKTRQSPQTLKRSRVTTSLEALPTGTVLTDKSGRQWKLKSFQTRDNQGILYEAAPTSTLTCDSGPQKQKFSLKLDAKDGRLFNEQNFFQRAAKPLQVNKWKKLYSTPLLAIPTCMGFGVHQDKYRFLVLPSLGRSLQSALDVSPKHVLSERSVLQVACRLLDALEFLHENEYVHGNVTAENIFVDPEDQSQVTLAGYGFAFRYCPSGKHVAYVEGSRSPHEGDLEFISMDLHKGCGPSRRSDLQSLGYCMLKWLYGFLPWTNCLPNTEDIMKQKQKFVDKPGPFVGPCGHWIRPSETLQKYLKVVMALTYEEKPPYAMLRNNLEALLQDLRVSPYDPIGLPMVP

The target of assay [2] is Calcium/calmodulin-dependent protein kinase type 1D (Homo sapiens) (UniProt Q8IU85).
Assay [3] addresses Serine/threonine-protein kinase RIO2 (Homo sapiens) (UniProt Q9BVS4).
For assay [4], the target named is STE20-like serine/threonine-protein kinase (Homo sapiens) (UniProt Q9H2G2).
For assay [5], the target named is Serine/threonine-protein kinase PAK 6 (Homo sapiens) (UniProt Q9NQU5).
The target of assay [6] is T2, Calcium/calmodulin-dependent protein kinase type IV (Homo sapiens) (UniProt Q16566).
T2 sequence (whole entry): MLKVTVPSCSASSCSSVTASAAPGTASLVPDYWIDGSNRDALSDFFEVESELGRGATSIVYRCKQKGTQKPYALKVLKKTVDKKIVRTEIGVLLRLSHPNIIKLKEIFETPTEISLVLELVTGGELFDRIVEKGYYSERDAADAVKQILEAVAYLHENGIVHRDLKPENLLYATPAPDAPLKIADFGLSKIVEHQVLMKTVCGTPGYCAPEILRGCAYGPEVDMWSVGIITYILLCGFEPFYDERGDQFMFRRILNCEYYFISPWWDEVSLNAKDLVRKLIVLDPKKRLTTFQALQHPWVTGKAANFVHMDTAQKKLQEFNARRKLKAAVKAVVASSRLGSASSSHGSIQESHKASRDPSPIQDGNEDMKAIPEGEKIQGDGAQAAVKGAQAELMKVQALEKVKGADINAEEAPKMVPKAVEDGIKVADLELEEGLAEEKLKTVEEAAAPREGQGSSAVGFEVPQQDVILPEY

Assay [7] concerns the target T3, Serine/threonine-protein kinase Nek2 (Homo sapiens) (UniProt P51955).
T3 sequence (whole entry): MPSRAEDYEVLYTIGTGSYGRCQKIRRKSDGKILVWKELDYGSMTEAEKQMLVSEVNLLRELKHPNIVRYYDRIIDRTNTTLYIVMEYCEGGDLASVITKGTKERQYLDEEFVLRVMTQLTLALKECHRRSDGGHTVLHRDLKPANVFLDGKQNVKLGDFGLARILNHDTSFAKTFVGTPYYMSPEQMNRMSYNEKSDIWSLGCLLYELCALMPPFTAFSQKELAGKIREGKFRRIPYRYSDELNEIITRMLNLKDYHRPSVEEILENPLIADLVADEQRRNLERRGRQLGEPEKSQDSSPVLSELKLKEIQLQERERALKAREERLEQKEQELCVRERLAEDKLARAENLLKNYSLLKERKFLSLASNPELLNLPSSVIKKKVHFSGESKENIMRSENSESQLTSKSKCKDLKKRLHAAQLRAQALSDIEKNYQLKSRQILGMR

Assay [8] has as its target Mitogen-activated protein kinase 3 (Homo sapiens, UniProt P27361).
Assay [9] addresses Serine/threonine-protein kinase 10 (Homo sapiens) (UniProt O94804).
Assay [10] concerns the target Serine/threonine-protein kinase Chk2 (Homo sapiens, UniProt O96017).
Assay [11] concerns the target Dual specificity mitogen-activated protein kinase kinase 2 (Homo sapiens, UniProt P36507).
Assay [12] has as its target Serine/threonine-protein kinase pim-2 (Homo sapiens, UniProt Q9P1W9).
Assay [13] has as its target Serine/threonine-protein kinase pim-1 (Homo sapiens) (UniProt P11309).
The target of assay [14] is Calcium/calmodulin-dependent protein kinase type II subunit gamma (Homo sapiens) (UniProt Q13555).
Assay [15] addresses Serine/threonine-protein kinase 38 (Homo sapiens) (UniProt Q15208).
Assay [16] addresses Cyclin-dependent kinase 2 (Homo sapiens, UniProt P24941).
For assay [17], the target named is Serine/threonine-protein kinase 26 (Homo sapiens) (UniProt Q9P289).
Assay [18] concerns the target T4, Serine/threonine-protein kinase 4 (Homo sapiens) (UniProt Q13043).
T4 sequence (whole entry): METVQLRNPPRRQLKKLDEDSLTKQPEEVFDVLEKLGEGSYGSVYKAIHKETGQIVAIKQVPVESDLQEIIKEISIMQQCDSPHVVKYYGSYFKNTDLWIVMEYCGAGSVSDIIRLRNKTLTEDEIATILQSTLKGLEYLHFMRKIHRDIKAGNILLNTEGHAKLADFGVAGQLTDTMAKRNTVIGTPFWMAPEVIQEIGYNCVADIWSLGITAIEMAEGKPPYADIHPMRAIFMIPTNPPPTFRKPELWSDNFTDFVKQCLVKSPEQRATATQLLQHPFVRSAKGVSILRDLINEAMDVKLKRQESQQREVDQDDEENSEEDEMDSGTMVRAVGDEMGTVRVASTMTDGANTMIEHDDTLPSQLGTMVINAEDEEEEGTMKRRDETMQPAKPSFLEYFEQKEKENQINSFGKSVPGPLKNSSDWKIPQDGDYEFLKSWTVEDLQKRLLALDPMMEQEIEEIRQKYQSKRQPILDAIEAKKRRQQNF

Assay [19] concerns the target Mitogen-activated protein kinase 11 (Homo sapiens, UniProt Q15759).
The target in assay [20] is TRAF2 and NCK-interacting protein kinase (Homo sapiens) (UniProt Q9UKE5).

Serine/threonine-protein kinase PAK 6 (Homo sapiens), sequence (Q9NQU5 whole entry, looked up): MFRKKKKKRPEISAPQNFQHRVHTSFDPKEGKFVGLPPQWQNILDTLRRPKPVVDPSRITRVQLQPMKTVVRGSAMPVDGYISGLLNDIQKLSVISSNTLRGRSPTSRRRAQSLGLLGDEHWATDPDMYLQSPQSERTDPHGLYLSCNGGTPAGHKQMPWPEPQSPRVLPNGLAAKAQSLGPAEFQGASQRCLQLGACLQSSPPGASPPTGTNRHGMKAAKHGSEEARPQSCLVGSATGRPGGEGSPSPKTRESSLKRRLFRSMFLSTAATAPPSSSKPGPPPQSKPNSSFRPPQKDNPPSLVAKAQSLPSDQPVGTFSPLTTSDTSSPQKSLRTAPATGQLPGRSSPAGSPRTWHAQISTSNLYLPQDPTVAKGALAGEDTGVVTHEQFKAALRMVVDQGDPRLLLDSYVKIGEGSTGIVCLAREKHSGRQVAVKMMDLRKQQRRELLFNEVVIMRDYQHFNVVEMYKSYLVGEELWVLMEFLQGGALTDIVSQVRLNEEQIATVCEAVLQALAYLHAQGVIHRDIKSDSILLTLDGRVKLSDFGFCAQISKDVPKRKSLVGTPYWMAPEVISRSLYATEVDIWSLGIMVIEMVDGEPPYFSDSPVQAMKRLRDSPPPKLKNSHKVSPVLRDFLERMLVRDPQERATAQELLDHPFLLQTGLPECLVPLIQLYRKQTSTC
Serine/threonine-protein kinase 10 (Homo sapiens), sequence (O94804 whole entry, looked up): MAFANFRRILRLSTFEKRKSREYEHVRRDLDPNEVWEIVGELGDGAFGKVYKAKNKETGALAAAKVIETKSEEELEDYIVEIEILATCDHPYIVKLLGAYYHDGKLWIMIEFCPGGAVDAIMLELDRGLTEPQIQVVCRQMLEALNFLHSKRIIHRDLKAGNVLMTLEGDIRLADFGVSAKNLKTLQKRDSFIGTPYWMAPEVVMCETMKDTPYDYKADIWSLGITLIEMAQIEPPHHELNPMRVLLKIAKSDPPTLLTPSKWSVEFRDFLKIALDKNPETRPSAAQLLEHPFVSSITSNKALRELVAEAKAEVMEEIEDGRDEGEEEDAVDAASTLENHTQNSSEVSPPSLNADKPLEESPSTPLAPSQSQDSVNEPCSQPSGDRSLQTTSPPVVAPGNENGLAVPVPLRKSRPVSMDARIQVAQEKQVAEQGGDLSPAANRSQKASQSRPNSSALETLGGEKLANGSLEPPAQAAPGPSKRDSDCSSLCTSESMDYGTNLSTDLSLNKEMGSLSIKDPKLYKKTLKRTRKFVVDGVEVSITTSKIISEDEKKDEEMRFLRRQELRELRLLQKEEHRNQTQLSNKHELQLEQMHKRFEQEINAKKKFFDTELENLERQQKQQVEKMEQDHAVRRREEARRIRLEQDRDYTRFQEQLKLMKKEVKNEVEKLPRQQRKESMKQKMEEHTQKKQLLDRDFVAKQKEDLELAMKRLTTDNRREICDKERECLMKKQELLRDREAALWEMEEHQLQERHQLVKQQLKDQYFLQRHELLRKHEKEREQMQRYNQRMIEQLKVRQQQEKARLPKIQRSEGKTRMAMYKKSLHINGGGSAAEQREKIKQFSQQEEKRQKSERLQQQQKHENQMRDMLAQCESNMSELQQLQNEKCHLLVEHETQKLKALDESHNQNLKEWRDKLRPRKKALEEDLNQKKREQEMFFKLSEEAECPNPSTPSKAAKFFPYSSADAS
Serine/threonine-protein kinase RIO2 (Homo sapiens), sequence (Q9BVS4 whole entry, looked up): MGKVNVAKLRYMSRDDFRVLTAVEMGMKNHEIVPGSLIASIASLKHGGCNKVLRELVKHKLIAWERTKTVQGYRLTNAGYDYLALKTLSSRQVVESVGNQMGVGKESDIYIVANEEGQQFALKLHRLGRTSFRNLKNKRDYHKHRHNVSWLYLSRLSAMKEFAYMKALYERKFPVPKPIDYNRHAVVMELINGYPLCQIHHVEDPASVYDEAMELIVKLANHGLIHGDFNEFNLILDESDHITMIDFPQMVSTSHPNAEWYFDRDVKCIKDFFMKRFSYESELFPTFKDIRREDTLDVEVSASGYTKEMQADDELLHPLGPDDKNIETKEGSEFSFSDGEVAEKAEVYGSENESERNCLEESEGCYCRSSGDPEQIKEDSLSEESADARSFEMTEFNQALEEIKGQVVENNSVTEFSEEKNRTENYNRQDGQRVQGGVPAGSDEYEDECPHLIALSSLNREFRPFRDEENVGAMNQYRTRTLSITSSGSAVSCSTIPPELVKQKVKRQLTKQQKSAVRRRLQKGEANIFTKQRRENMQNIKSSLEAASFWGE
Serine/threonine-protein kinase 38 (Homo sapiens), sequence (Q15208 2-465 limits assumed): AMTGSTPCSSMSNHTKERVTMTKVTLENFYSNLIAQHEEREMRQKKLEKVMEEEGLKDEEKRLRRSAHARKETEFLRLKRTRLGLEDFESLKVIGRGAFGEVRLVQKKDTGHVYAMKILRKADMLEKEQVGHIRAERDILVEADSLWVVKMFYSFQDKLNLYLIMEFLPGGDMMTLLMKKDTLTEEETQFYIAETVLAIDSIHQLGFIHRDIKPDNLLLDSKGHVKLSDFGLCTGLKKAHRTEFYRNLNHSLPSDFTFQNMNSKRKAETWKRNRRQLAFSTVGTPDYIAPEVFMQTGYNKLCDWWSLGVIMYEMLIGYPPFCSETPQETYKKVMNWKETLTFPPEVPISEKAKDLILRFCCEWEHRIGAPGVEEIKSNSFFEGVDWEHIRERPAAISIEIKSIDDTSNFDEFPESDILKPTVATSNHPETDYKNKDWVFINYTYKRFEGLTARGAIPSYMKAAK
Calcium/calmodulin-dependent protein kinase type 1D (Homo sapiens), sequence (Q8IU85 whole entry, looked up): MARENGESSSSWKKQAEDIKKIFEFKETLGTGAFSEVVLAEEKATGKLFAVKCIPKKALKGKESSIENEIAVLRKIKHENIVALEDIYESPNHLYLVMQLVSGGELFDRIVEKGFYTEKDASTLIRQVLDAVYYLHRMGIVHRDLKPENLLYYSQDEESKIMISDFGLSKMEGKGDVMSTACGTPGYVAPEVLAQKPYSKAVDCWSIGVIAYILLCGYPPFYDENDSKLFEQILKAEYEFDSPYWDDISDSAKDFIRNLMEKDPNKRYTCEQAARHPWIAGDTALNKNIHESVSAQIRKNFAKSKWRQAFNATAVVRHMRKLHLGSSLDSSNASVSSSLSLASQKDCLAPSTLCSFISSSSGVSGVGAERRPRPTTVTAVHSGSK
Serine/threonine-protein kinase pim-2, sequence (Q9P1W9 whole entry, looked up): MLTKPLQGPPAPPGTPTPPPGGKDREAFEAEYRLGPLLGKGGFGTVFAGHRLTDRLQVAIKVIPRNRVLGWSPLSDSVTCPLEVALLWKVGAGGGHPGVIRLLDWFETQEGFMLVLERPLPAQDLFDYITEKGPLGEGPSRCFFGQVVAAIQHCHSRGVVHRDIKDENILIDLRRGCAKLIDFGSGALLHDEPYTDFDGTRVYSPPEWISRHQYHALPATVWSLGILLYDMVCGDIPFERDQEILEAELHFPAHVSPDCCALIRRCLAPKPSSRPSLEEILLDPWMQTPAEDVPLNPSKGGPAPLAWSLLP
Serine/threonine-protein kinase 26 (Homo sapiens), sequence (Q9P289 2-416 limits assumed): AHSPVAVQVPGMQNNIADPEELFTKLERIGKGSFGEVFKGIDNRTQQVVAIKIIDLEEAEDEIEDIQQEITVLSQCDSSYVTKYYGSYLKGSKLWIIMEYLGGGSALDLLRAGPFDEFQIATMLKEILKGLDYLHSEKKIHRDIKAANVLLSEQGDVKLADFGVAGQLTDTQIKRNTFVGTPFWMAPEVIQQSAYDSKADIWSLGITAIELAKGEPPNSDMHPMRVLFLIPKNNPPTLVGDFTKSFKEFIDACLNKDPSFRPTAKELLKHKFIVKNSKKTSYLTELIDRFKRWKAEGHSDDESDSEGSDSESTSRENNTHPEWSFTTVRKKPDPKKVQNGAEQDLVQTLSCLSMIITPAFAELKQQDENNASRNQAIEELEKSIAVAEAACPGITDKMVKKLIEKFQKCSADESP
STE20-like serine/threonine-protein kinase (Homo sapiens), sequence (Q9H2G2 whole entry, looked up): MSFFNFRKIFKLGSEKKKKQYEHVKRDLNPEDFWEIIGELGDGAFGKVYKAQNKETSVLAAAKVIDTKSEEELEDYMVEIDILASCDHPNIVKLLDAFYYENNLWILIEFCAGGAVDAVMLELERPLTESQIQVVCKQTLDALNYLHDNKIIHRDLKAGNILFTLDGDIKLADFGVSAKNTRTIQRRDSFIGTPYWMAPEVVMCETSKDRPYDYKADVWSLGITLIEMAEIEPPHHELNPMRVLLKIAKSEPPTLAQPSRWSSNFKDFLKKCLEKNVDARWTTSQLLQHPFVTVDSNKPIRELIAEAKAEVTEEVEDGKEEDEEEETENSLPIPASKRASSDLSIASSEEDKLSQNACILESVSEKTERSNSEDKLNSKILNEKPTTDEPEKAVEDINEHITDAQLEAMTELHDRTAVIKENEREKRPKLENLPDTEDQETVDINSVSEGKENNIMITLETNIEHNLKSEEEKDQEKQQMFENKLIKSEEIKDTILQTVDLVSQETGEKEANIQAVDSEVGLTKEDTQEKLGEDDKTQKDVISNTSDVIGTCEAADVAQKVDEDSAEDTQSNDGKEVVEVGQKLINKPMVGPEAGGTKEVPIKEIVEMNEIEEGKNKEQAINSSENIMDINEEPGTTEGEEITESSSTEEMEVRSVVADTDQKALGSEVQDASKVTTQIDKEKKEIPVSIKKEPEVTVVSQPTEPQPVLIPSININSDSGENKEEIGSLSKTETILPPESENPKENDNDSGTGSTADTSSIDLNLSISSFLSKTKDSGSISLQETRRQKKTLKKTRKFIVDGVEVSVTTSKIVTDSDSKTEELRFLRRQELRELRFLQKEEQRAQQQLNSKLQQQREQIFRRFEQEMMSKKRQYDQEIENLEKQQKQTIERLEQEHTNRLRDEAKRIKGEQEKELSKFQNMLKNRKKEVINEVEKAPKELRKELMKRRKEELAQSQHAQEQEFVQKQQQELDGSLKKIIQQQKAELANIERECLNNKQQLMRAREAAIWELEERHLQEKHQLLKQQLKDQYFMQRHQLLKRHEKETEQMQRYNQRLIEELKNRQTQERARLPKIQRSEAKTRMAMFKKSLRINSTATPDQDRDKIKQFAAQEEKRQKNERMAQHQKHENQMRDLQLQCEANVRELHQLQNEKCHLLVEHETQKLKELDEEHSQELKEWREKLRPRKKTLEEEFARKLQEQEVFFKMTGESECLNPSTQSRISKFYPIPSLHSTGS

As to `COc1cccc(-c2cc(=O)c3ccccc3o2)c1N`, the ΔTm (as a rule, the shift of the melting midpoint relative to a reference) was 0.6 °C in assay [1]; -0.1 °C in assay [2]; 0.5 °C in [3]; -0.1 °C in assay [4]; 0.4 °C in assay [5]; -0.1 °C in assay [6]. For the same compound, the ΔTm in assay [7] is -0.2 °C; in assay [8] it was 0 °C; in assay [9], 0.4 °C; in assay [10], -0.5 °C; in [11], 0.1 °C; in [12] it was 0.2 °C. Also, the ΔTm is 0.9 °C in [13]; 0.1 °C in assay [14]; 0.2 °C in [15]; 0.3 °C in assay [16]; -0.3 °C in [17]; -0.1 °C in assay [18]. Besides, the thermal shift (ΔTm) in assay [19] is 0.2 °C; in assay [20] it was -0.1 °C.
On to `COc1ccc(S(=O)(=O)N(CCO)c2ccccc2CN(C)C/C=C/c2ccc(Cl)cc2)cc1`, for which the thermal shift (ΔTm) in assay [1] was -0.6 °C; in assay [2] it was -0.3 °C; in [3] it was -0.4 °C; in assay [4], 1.1 °C; in [5] it was -0.8 °C; in assay [6], -0.3 °C. Further, the thermal shift (ΔTm) in [7] is -0.1 °C; in assay [8], 0.1 °C; in assay [9], 0.2 °C; in assay [10] it was -0.1 °C; in assay [11] it was -0.2 °C; in [12], 0.6 °C. Also, the shift in melting temperature (ΔTm) is 1.3 °C in [13]; -0.6 °C in assay [14]; -0.2 °C in assay [15]; 0 °C in [16]; -0.1 °C in assay [17]; -0.2 °C in [18]. Moreover, the thermal shift (ΔTm) turned out to be 0.2 °C in assay [19] and 1.3 °C in assay [20].
Turning to `Cl.Cn1cc(C2=C(c3ccc4cc5n(c4c3)CCC(CN)C5)C(=O)NC2=O)c2ccccc21` (stereo not given), the thermal shift (ΔTm) in assay [1] is 0.6 °C; in [2] it was 0.3 °C; in assay [3], -0.2 °C; in assay [4], 4.5 °C; in assay [5], 0.7 °C; in assay [6], 0.1 °C. Moreover, the shift in melting temperature (ΔTm) in assay [7] was 1.1 °C; in assay [8], -0.5 °C; in assay [9], 5.3 °C; in assay [10], 1 °C; in [11], 0.1 °C; in assay [12], 3.1 °C. Further, the ΔTm in assay [13] worked out at 6.3 °C; in assay [14] it was 1.1 °C; in assay [15], 0.4 °C; in assay [16], 2.4 °C; in assay [17] it was 0.3 °C; in [18], 7.1 °C. Moreover, the ΔTm in assay [19] is -0.1 °C; in [20], 0.3 °C.
For the compound `Cc1c2ccncc2c(C)c2c1[nH]c1ccccc12` [ELLIPTECINE], the ΔTm was 1.3 °C in assay [1]; 1.2 °C in [2]; 3.8 °C in assay [3]; 4.1 °C in assay [4]; -0.5 °C in assay [5]; 0.4 °C in assay [6]. Further, the shift in melting temperature (ΔTm) was 0.5 °C in assay [7]; 0.3 °C in [8]; 1.9 °C in assay [9]; 2 °C in assay [10]; 1 °C in assay [11]; 7.1 °C in [12]. In addition, the ΔTm was 4.8 °C in assay [13]; 1.6 °C in [14]; 1.1 °C in [15]; 1.6 °C in [16]; 4.6 °C in assay [17]; 4 °C in assay [18]. The ΔTm in assay [19] was 0.6 °C; in [20] it was -0.2 °C.
